Key:
Test in all cases: competitive isoTOP-ABPP, MDA-MB-231 soluble proteome
Format in all cases: binding
CHRAC1 = target: T1, CHRAC1 (Homo sapiens, UniProt Q9NRG0); details: 100 μM LDE, 60 min; peptide ATELFVQC*LATYSYR
T1 construct: directly in native proteomes; endogenous in cells; host or cells: MDA-MB-231
T1 sequence (Q9NRG0 1-131): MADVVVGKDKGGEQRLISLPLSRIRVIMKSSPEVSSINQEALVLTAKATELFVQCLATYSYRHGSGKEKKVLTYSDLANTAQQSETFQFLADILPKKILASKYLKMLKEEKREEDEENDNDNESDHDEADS

IFIT3 = target: T2, IFIT3 (Homo sapiens, UniProt O14879); details: 100 μM LDE, 60 min; peptide GLNPLNAYSDLAEFLETEC*YQTPFNK
T2 construct: directly in native proteomes; endogenous in cells; host or cells: MDA-MB-231
T2 sequence (O14879 1-490): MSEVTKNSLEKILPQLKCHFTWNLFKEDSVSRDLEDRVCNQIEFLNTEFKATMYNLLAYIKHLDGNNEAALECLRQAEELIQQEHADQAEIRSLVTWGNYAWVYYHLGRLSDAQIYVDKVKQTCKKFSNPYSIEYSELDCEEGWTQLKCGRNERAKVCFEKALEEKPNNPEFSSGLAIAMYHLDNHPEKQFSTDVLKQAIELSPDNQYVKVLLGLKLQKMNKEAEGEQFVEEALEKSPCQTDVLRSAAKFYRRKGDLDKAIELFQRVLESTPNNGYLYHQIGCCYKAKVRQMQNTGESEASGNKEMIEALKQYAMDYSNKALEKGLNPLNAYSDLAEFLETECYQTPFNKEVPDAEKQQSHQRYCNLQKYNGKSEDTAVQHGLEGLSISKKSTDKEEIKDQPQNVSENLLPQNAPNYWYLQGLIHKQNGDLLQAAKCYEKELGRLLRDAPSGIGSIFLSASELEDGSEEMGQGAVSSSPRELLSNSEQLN

PEF1 = target: T3, PEF1 (Homo sapiens, UniProt Q9UBV8); details: 100 μM LDE, 60 min; peptide QALVNC*NWSSFNDETCLMMINMFDK
T3 construct: directly in native proteomes; endogenous in cells; host or cells: MDA-MB-231
T3 sequence (Q9UBV8 1-284): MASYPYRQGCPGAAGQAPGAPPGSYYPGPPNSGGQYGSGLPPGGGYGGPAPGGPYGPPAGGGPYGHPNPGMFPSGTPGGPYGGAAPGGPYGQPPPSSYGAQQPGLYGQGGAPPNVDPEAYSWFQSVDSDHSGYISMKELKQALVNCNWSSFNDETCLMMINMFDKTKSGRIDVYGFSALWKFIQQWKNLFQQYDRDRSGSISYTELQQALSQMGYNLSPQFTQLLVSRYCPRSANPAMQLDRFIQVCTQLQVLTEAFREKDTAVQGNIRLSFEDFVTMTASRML

Row | Compound | R value (isoTOP-ABPP ratio heavy/light) for IA-labeled cysteine of CHRAC1 (CHRAC1) | R value (isoTOP-ABPP ratio heavy/light) for IA-labeled cysteine of IFIT3 (IFIT3) | R value (isoTOP-ABPP ratio heavy/light) for IA-labeled cysteine of PEF1 (PEF1)
1 | CCCCCCCCCCCCC/C=C/C=O [2-HD, 2-trans-hexadecenal] | 1.06 | 1.23 | 1.25
2 | CCCCCC(O)/C=C/C=O (stereo not drawn) [4-HNE, 4-Hydroxynonenal] | 1.94 | 1.51 | 5.14
3 | CCCCC/C=C/C=C1/C(=O)C=C[C@@H]1C/C=C\CCCC(=O)O [PGJ2, 15-deoxy-Δ12,14-prostaglandin J2] | 12.32 | 9.43 | 2.9
